In brackets after ≈: the same amount, converted by molar mass.
How the values were obtained:
Acinetobacter baumannii [1] = assay: Antibacterial activity against Acinetobacter baumannii A clone expressing carbapenemase-encoding blaOXA-40 gene by Etest method; type: functional
[2] = tested on: Acinetobacter haemolyticus; assay: Antibacterial activity against Acinetobacter haemolyticus expressing carbapenemase-encoding blaOXA-40 gene by Etest method; type: functional
Acinetobacter baumannii [3] = assay: Antibacterial activity against Acinetobacter baumannii C clone by Etest method; type: functional
Acinetobacter baumannii [4] = assay: Antibacterial activity against Acinetobacter baumannii B clone by Etest method; type: functional
[5] = tested on: Acinetobacter haemolyticus; assay: Antibacterial activity against Acinetobacter haemolyticus expressing carbapenemase-encoding blaOXA-40 gene by agar dilution method; type: functional, organism-based
Acinetobacter baumannii [6] = assay: Antibacterial activity against Acinetobacter baumannii B clone by agar dilution method; type: functional, organism-based
Acinetobacter baumannii [7] = assay: Antibacterial activity against Acinetobacter baumannii A clone expressing carbapenemase-encoding blaOXA-40 gene by agar dilution method; type: functional, organism-based
Acinetobacter baumannii [8] = assay: Antibacterial activity against Acinetobacter baumannii C clone by agar dilution method; type: functional, organism-based

| Molecule | MIC (Acinetobacter baumannii [1]) [µg/mL] | MIC (Acinetobacter baumannii [3]) [µg/mL] | MIC (Acinetobacter baumannii [4]) [µg/mL] | MIC (Acinetobacter baumannii [6]) [µg/mL] | MIC (Acinetobacter baumannii [7]) [µg/mL] | MIC (Acinetobacter baumannii [8]) [µg/mL] | MIC [2] [µg/mL] | MIC [5] [µg/mL] |
| --- | --- | --- | --- | --- | --- | --- | --- | --- |
| CC(C)(O/N=C(\C(=O)N[C@@H]1C(=O)N2C(C(=O)[O-])=C(C[n+]3ccccc3)CS[C@H]12)c1csc(N)n1)C(=O)O [CEFTAZIDIME] | 256 (≈ 468 µM) | 4 (≈ 7.32 µM) | 4 (≈ 7.32 µM) |  |  |  | 4 (≈ 7.32 µM) |  |
| COLISTIN |  |  |  | > 16 | > 16 | 2 |  | 4 |
| C[C@@H](O)[C@H]1C(=O)N2C(C(=O)O)=C(SCCNC=N)C[C@H]12 [IMIPENEM ANHYDROUS] | ≥ 32 | 32 (≈ 107 µM) | ≥ 32 |  |  |  | ≥ 32 |  |
| CCN1CCN(C(=O)N[C@@H](C(=O)N[C@@H]2C(=O)N3[C@@H]2SC(C)(C)[C@@H]3C(=O)O)c2ccccc2)C(=O)C1=O [PIPERACILLIN] | ≥ 256 | 64 (≈ 124 µM) | ≥ 256 |  |  |  | ≥ 256 |  |
| CO/N=C(\C(=O)N[C@@H]1C(=O)N2C(C(=O)[O-])=C(C[N+]3(C)CCCC3)CS[C@H]12)c1csc(N)n1 |  |  |  |  |  |  | 4 (≈ 8.32 µM) |  |
| C[C@@H](O)[C@H]1C(=O)N2C(C(=O)O)=C(S[C@@H]3CN[C@H](C(=O)N(C)C)C3)[C@H](C)[C@H]12 [MEROPENEM] | ≥ 32 | 4 (≈ 10.4 µM) | 2 (≈ 5.22 µM) |  |  |  | ≥ 32 |  |
| C[C@H]1[C@H](NC(=O)/C(=N\OC(C)(C)C(=O)O)c2csc(N)n2)C(=O)N1S(=O)(=O)O [AZTREONAM] |  |  |  |  |  |  | 4 (≈ 9.19 µM) |  |

More lines, main results first:

| MIC (Acinetobacter baumannii [1]) [µg/mL] | MIC (Acinetobacter baumannii [3]) [µg/mL] | MIC (Acinetobacter baumannii [4]) [µg/mL] | MIC (Acinetobacter baumannii [6]) [µg/mL] | MIC (Acinetobacter baumannii [7]) [µg/mL] | MIC (Acinetobacter baumannii [8]) [µg/mL] | Molecule | MIC [2] [µg/mL] | MIC [5] [µg/mL] |
| --- | --- | --- | --- | --- | --- | --- | --- | --- |
| ≥ 256 | ≥ 256 | ≥ 256 |  |  |  | CC1(C)S[C@@H]2[C@H](NC(=O)[C@H](C(=O)O)c3ccsc3)C(=O)N2[C@H]1C(=O)O [TICARCILLIN] | ≥ 256 |  |
| ≥ 256 | ≥ 256 | ≥ 256 |  |  |  | CO[C@@]1(NC(=O)Cc2cccs2)C(=O)N2C(C(=O)O)=C(COC(N)=O)CS[C@@H]21 [CEFOXITIN] | 32 (≈ 74.9 µM) |  |
| ≥ 256 | 128 (≈ 350 µM) | > 64 |  |  |  | CC1(C)S[C@@H]2[C@H](NC(=O)[C@H](N)c3ccc(O)cc3)C(=O)N2[C@H]1C(=O)O [AMOXICILLIN] | ≥ 256 |  |
